Here are results for 26 compounds from patent publication US11702404B2, “GLP-1R modulating compounds” (priority 2019, dated 2023).

As a reminder, the pEC50 is −log10 of the EC50, conventionally taken in molar units. As usually defined, the EC50 is the concentration at which the effect is half-maximal. High values mean a need for much substance, low ones an effect from little substance.

The target in one data set is GLP-1R (Homo sapiens, UniProt P43220). In words: GLP-1R activation: cAMP increase in CHO cells stably expressing GLP-1R. The format is cell-based. To be noted: for pEC50: read-out: EC50.
GLP-1R, sequence (P43220 24-463): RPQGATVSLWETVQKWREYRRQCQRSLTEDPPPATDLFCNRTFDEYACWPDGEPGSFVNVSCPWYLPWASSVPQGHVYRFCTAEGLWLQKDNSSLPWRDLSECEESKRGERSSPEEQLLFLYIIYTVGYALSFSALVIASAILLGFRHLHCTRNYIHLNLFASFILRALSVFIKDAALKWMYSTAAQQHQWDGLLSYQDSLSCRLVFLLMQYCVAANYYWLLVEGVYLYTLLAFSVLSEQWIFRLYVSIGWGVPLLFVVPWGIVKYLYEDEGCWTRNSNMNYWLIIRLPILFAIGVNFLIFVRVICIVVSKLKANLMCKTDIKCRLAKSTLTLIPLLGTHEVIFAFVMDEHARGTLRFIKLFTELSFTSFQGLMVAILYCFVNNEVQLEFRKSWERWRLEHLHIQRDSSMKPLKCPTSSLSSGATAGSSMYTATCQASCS
The nature of data set [1]: Microsomal stability, human liver microsomes (predicted hepatic clearance). To be noted: predicted from in vitro microsomal stability data.
Where [2] appears, read: cAMP increase, CHO cells stably expressing GLP-1R, 10 point dose response, 30 minutes incubation.

pEC50: −log10 of the molar value. Like-named read-outs stand apart in the source and are kept apart here.

As to `COCCn1c(Cc2ccc(-c3cccc(OCc4cccc(C(C)(C)C)c4)n3)cc2F)nc2ccc(C(=O)O)cc21` [Example 155, 2-(4-(6-((3-(tert-butyl)benzyl)oxy)pyridin-2-yl)-2-fluorobenzyl)-1-(2-methoxyethyl)-1H-benzo[d]imidazole-6-carboxylic acid], the pEC50 on GLP-1R (setting [2]) is 7.14. Moreover, the “Predicted Hepatic Clearance (Pred. Cl.)” value in data set [1] was 5.5 mL/min/kg.

For the compound `N#Cc1ccc(COc2cccc(-c3ccc(Cc4nc5ncc(C(=O)O)cc5n4CC4(CF)CC4)c(F)c3)n2)c(F)c1` [Example 92, 2-(4-(6-((4-cyano-2-fluorobenzyl)oxy)pyridin-2-yl)-2-fluorobenzyl)-1-((1-(fluoromethyl)cyclopropyl)methyl)-1H-imidazo[4,5-b]pyridine-6-carboxylic acid], the pEC50 on GLP-1R is 8.58. Further, the “Predicted Hepatic Clearance (Pred. Cl.)” value in data set [1] was 3.17 mL/min/kg.

Take `N#Cc1ccc(COc2cccc(-c3cc(F)c(Cc4nc5ccc(C(=O)O)cc5n4C4CCOCC4)cc3F)n2)c(F)c1` [Example 547, 2-(4-(6-((4-cyano-2-fluorobenzyl)oxy)pyridin-2-yl)-2,5-difluorobenzyl)-1-(tetrahydro-2H-pyran-4-yl)-1H-benzo[d]imidazole-carboxylic acid]: the pEC50 on GLP-1R (setting [2]) is 8.46. For the same compound, the “Predicted Hepatic Clearance (Pred. Cl.)” value in data set [1] was 7.33 mL/min/kg.

As for `N#Cc1ccc(COc2cccc(-c3ccc(Cc4nc5ccc(C(=O)O)cc5n4Cc4ccon4)c(F)c3)n2)c(F)c1` [Example 484, 2-(4-(6-((4-cyano-2-fluorobenzyl)oxy)pyridin-2-yl)-2-fluorobenzyl)-1-(isoxazol-3-ylmethyl)-1H-benzo[d]imidazole-6-carboxylic acid], the pEC50 on GLP-1R (setting [2]) was 8.97. Besides, the “Predicted Hepatic Clearance (Pred. Cl.)” value in data set [1] is 3.45 mL/min/kg.

As for `COCCn1c(Cc2ccc(-c3cccc(OCc4ccc(C#N)cc4F)n3)cc2F)nc2ccc(CC(=O)O)cc21` [Example 386, 2-(2-(4-(6-((4-cyano-2-fluorobenzyl)oxy)pyridin-2-yl)-2-fluorobenzyl)-1-(2-methoxyethyl)-1H-benzo[d]imidazol-6-yl)acetic acid], the EC50 on GLP-1R (EC50 (nM)) turned out to be 157 nM. In addition, in data set [1], the “Predicted Hepatic Clearance (Pred. Cl.)” value was 2 mL/min/kg.

As to `COCCn1c(Cc2ccc(-c3cc(OCc4ccc(C#N)cc4F)ccc3F)cc2F)nc2ccc(C(=O)O)cc21` [Example 28, 2-((5′-((4-cyano-2-fluorobenzyl)oxy)-2′,3-difluoro-[1,1′-biphenyl]-4-yl)methyl)-1-(2-methoxyethyl)-1H-benzo[d]imidazole-6-carboxylic acid], the pEC50 on GLP-1R (setting [2]) was 7.03. In data set [1], the “Predicted Hepatic Clearance (Pred. Cl.)” value is 3.17 mL/min/kg.

For the compound `COc1cc(C#N)ccc1COc1cccc(-c2cc(F)c(Cc3nc4ccc(C(=O)O)cc4n3CC3(CF)CC3)cc2F)n1` [Example 409, 2-(4-(6-((4-cyano-2-methoxybenzyl)oxy)pyridin-2-yl)-2,5-difluorobenzyl)-1-((1-(fluoromethyl)cyclopropyl)methyl)-1H-benzo[d]imidazole-6-carboxylic acid], the pEC50 on GLP-1R (setting [2]) was 9.43. The “Predicted Hepatic Clearance (Pred. Cl.)” value in data set [1] is under 1.83 mL/min/kg.

As to `COCCn1c(Cc2ccc(-c3cc(OC)cc(OCc4ccc(C#N)cc4F)c3)cc2F)nc2ccc(C(=O)O)cc21` [Example 30, 2-((3′-((4-cyano-2-fluorobenzyl)oxy)-3-fluoro-5′-methoxy-[1,1′-biphenyl]-4-yl)methyl)-1-(2-methoxyethyl)-1H-benzo[d]imidazole-6-carboxylic acid], the pEC50 at GLP-1R (setting [2]) is 5.87. Also, the “Predicted Hepatic Clearance (Pred. Cl.)” value in data set [1] was 4.67 mL/min/kg.

On to `N#Cc1ccc(COc2ccc(F)c(-c3ccc(Cc4nc5ccc(C(=O)O)cc5n4C[C@@H]4CCO4)c(F)c3)n2)c(F)c1` [Example 797], for which the pEC50 on GLP-1R (setting [2]) was 9.57. Besides, in data set [1], the “Predicted Hepatic Clearance (Pred. Cl.)” value is 7.17 mL/min/kg.

Turning to `N#Cc1ccc(COc2nc(-c3cc(F)c(Cc4nc5c(F)cc(C(=O)O)cc5n4C[C@@H]4CCO4)cc3F)ncc2F)c(F)c1` [Example 131, (S)-2-(4-(4-((4-cyano-2-fluorobenzyl)oxy)-5-fluoropyrimidin-2-yl)-2,5-difluorobenzyl)-4-fluoro-1-(oxetan-2-ylmethyl)-1H-benzo[d]imidazole-6-carboxylic acid], on GLP-1R (setting [2]), the negative-log EC50 (pEC50) is 10.10. For the same compound, the “Predicted Hepatic Clearance (Pred. Cl.)” value in data set [1] was 4 mL/min/kg.

Turning to `COCCn1c(Cc2ccc(-c3csc(OCc4ccc(C#N)cc4F)n3)cc2F)nc2ccc(C(=O)O)cc21` [Example 26, 2-(4-(2-((4-cyano-2-fluorobenzyl)oxy)thiazol-4-yl)-2-fluorobenzyl)-1-(2-methoxyethyl)-1H-benzo[d]imidazole-6-carboxylic acid], the pEC50 on GLP-1R (setting [2]) was 6.94. The “Predicted Hepatic Clearance (Pred. Cl.)” value in data set [1] was 4.67 mL/min/kg.

For `CCn1cncc1Cn1c(Cc2ccc(-c3cccc(OCc4ccc(C#N)cc4F)n3)cc2C#N)nc2ccc(C(=O)O)cc21` [Example 522, 2-(2-cyano-4-(6-((4-cyano-2-fluorobenzyl)oxy)pyridin-2-yl)benzyl)-1-((1-ethyl-1H-imidazol-5-yl)methyl)-1H-benzo[d]imidazole-carboxylic acid], the pEC50 on GLP-1R (setting [2]) is 6.86. The “Predicted Hepatic Clearance (Pred. Cl.)” value in data set [1] is under 1.83 mL/min/kg.

In the case of `COCCn1c(Cc2cc(F)c(-c3cccc(OCc4ccc(Cl)cn4)n3)cc2F)nc2ccc(C(=O)O)cc21` [Example 869], the pEC50 at GLP-1R (setting [2]) was 8.20. Further, in data set [1], the “Predicted Hepatic Clearance (Pred. Cl.)” value is 6.5 mL/min/kg.

As to `COCC1(n2c(Cc3ccc(-c4cccc(OCc5ccc(C#N)cc5F)n4)cc3F)nc3ccc(C(=O)O)cc32)CC1` [Example 377, 2-(4-(6-((4-cyano-2-fluorobenzyl)oxy)pyridin-2-yl)-2-fluorobenzyl)-1-(1-(methoxymethyl)cyclopropyl)-1H-benzo[d]imidazole-6-carboxylic acid], the pEC50 at GLP-1R (setting [2]) was 7.96. Further, the “Predicted Hepatic Clearance (Pred. Cl.)” value in data set [1] is 3.17 mL/min/kg.

For the compound `N#Cc1ccc(COc2nccc(-c3cc(F)c(Cc4nc5ccc(C(=O)O)cc5n4CC4(CF)CC4)c(F)c3)n2)c(F)c1` [Example 317, 2-(4-(2-((4-cyano-2-fluorobenzyl)oxy)pyrimidin-4-yl)-2,6-difluorobenzyl)-1-((1-(fluoromethyl)cyclopropyl)methyl)-1H-benzo[d]imidazole-6-carboxylic acid], the pEC50 on GLP-1R (setting [2]) is 8.98. Besides, in data set [1], the “Predicted Hepatic Clearance (Pred. Cl.)” value is 2.67 mL/min/kg.

As for `O=C(O)c1cc(F)c2nc(Cc3ccc(-c4cccc(OCc5ccc(C(F)F)cc5F)n4)cc3F)n(CC34CC(CO3)C4)c2c1` [Example 646], on GLP-1R (setting [2]), the pEC50 was 8.75. Moreover, the “Predicted Hepatic Clearance (Pred. Cl.)” value in data set [1] is 5.83 mL/min/kg.

As for `COCCn1c(Cc2cc(F)c(-c3cccc(OCc4ccn(-c5ccccc5)n4)n3)cc2F)nc2ccc(C(=O)O)cc21` [Example 694], the pEC50 on GLP-1R (setting [2]) is 7.38. For the same compound, the “Predicted Hepatic Clearance (Pred. Cl.)” value in data set [1] is 1.83 mL/min/kg.

On to `N#Cc1ccc(COc2cccc(-c3cc(F)c(Cc4nc5ccc(C(=O)O)cc5n4CC45CC(CCO4)C5)cc3F)n2)c(F)c1` [Example 623], for which the pEC50 on GLP-1R (setting [2]) was 8.39. In addition, in data set [1], the “Predicted Hepatic Clearance (Pred. Cl.)” value is 10.7 mL/min/kg.

As to `N#Cc1cc(F)c(COc2cccc(-c3cc(F)c(Cc4nc5c(F)cc(C(=O)O)cc5n4C[C@@H]4CCO4)cc3F)n2)cc1F` [Example 796], on GLP-1R (setting [2]), the pEC50 is 10.52. Besides, the “Predicted Hepatic Clearance (Pred. Cl.)” value in data set [1] was 1.83 mL/min/kg.

Regarding `N#Cc1ccc(COc2nccc(-c3cc(F)c(Cc4nc5ccc(C(=O)O)nc5n4CC4(CF)CC4)cc3F)n2)c(F)c1` [Example 106, 2-(4-(2-((4-cyano-2-fluorobenzyl)oxy)pyrimidin-4-yl)-2,5-difluorobenzyl)-3-((1-(fluoromethyl)cyclopropyl)methyl)-3H-imidazo[4,5-b]pyridine-5-carboxylic acid], the pEC50 on GLP-1R (setting [2]) was 8.82. Besides, the “Predicted Hepatic Clearance (Pred. Cl.)” value in data set [1] is under 1.83 mL/min/kg.

As to `N#Cc1ccc(COc2cccc(-c3ccc(Cc4nc5c(F)cc(C(=O)O)cc5n4CC(O)CCO)c(F)c3)n2)c(F)c1` (stereo not shown) [Example 468, 2-[[4-[6-[(4-cyano-2-fluoro-phenyl)methoxy]-2-pyridyl]-2-fluoro-phenyl]methyl]-3-(2,4-dihydroxybutyl)-7-fluoro-benzimidazole-5-carboxylic acid], at GLP-1R (setting [2]), the pEC50 is 7.57. Further, the “Predicted Hepatic Clearance (Pred. Cl.)” value in data set [1] was 2.17 mL/min/kg.

Regarding `Cc1cc(Cn2c(Cc3ccc(-c4cccc(OCc5ccc(C#N)cc5F)n4)cc3F)nc3ccc(C(=O)O)cc32)no1` [Example 606], the negative-log EC50 (pEC50) on GLP-1R (setting [2]) is 6.75. In data set [1], the “Predicted Hepatic Clearance (Pred. Cl.)” value is 1.83 mL/min/kg.

In the case of `COCCn1c(Cc2ccc(-c3nccc(OCc4ccc(C#N)cc4F)n3)cc2F)nc2ccc(C(=O)O)cc21` [Example 25, 2-{[4-[4-[(4-cyano-2-fluoro-phenyl)methoxy]pyrimidin-2-yl]-2-fluoro-phenyl]methyl}-3-(2-methoxyethyl)benzimidazole-5-carboxylic acid], at GLP-1R (setting [2]), the pEC50 was 7.59. For the same compound, the “Predicted Hepatic Clearance (Pred. Cl.)” value in data set [1] was 7.33 mL/min/kg.

Take `N#Cc1ccc(COc2cccc(-c3ccc(Cc4nc5c(F)cc(C(=O)O)cc5n4C[C@@H](O)CCO)cc3F)n2)c(F)c1` [Example 471, (S)-2-(4-(6-((4-cyano-2-fluorobenzyl)oxy)pyridin-2-yl)-3-fluorobenzyl)-1-(2,4-dihydroxybutyl)-4-fluoro-1H-benzo[d]imidazole-6-carboxylic]: the pEC50 at GLP-1R (setting [2]) was 7.86. The “Predicted Hepatic Clearance (Pred. Cl.)” value in data set [1] was 4 mL/min/kg.

As for `N#Cc1ccc(COc2cccc(-c3cc(F)c(Cc4nc5ccc(C(=O)O)cc5n4Cc4nncs4)cc3F)n2)c(F)c1` [Example 576, 1-((1,3,4-thiadiazol-2-yl)methyl)-2-(4-(6-((4-cyano-2-fluorobenzyl)oxy)pyridin-2-yl)-2,5-difluorobenzyl)-1H-benzo[d]imidazole-6-carboxylic acid], the pEC50 on GLP-1R (setting [2]) is 9.07. In data set [1], the “Predicted Hepatic Clearance (Pred. Cl.)” value is 8 mL/min/kg.

On to `N#Cc1ccc(COc2cccc(-c3cc(F)c(Cc4nc5ccc(C(=O)O)cc5n4C4CC5(COC5)C4)cc3F)n2)c(F)c1` [Example 728], for which the pEC50 on GLP-1R (setting [2]) was 7.03. Moreover, in data set [1], the “Predicted Hepatic Clearance (Pred. Cl.)” value was 8.33 mL/min/kg.
